What was measured:
3T3-L1 adipocytes = test: Lactic acid increase induced by metformin hydrochloride in 3T3-L1 adipocytes; assay type: cell-based, mouse; details: for Lactic acid levels: additive 40 mM together with metformin hydrochloride 10 mM, medium after 24 hr, 30% O2/5% CO2
Protocol: Then the cells were differentiated to adipocytes according to the following procedure. […] The medium was changed with the same fresh medium every 48 hr until experiments. Lactic acid levels were measured by enzyme assay on lactate dehydrogenase and glutamate pyruvate transaminase, using Lactate Test BMY (Boehringer Mannheim). To the plate of the differentiated 3T3-L1 cells were added metoformin hydrochloride (10 mM) and various acids (40 mM), and the differentiated 3T3-L1 cells were incubated under 30% O2/5% CO2 condition for 24 hr. Lactic acid levels in the medium were measured.

KKAy mice [1] = test: Reduction of blood sugar levels in diabetic model animals (KKAy mice), metformin L-ascorbate study; details: p.o. twice a day for 5 days; for Blood glucose levels: 2 hr after last administration, metformin hydrochloride 600, L-ascorbic acid 800, metformin L-ascorbate 1400 mg/kg/dose
KKAy mice [2] = test: Reduction of blood sugar levels in diabetic model animals (KKAy mice), metformin hydrochloride + L-ascorbic acid study; assay type: in vivo, mouse; details: p.o. twice a day for 5 days; for Blood glucose levels: 2 hr after last administration, metformin hydrochloride 600, L-ascorbic acid 2900, metformin hydrochloride 600 + L-ascorbic acid 2900 mg/kg/dose
Excerpt: . The experimental schedule was as follows.

[3] = tested on: rat hepatocytes primary culture; test: Inhibition of gluconeogenesis in rat hepatocytes primary culture; assay type: cell-based; details: 6 hr; for Glucose levels in the medium: Hanks solution containing 0.1% fructose
Protocol: Hepatocytes were isolated from a male Wistar rat. The isolated hepatocytes were grown on gelatin coated 24-well plate (3×10^5 cells/well) in Williams E medium containing 10 nM dexamethasone and 5% fetal calf serum under the 37° C., 5% CO2/95% air condition for 24 hr.
After the plates of hepatocytes primary culture were washed by phosphate buffer twice, the medium were changed to Hanks solution containing 0.1% fructose (depletion glucose). […] Glucose levels (mg/dL) in the medium were measured.

5/6 nephrectomy rats = details: p.o. twice a day for 4 days
Excerpt: After 5-week old Wistar rats were acclimatized for 7 to 10 days, 2/3 of left kidney were removed. After the rats were bred and observed for 7 days, all right kidney was removed. After the rats were bred and observed for 7 to 10 days, the rats were used for experiments.
The experimental schedule was as follows. 5/6 Nephrectomy rats were divided into four groups according to their weight, blood urea nitrogen levels and serum creatinine levels after preliminary breeding and observation after purchase. […] The volume of administrated liquids was 5 mL/kg/dose. […] Blood was collected from tail vein under ether anesthetics at the day 5, and the blood lactic acid levels were measured.

| SMILES | Lactic acid levels (3T3-L1 adipocytes) [mg/dL] | Blood glucose levels (KKAy mice [1]) [mg/dL] | Blood glucose levels (KKAy mice [2]) [mg/dL] | Effect for reducing blood glucose levels (in words) (KKAy mice [1]) | other results |
| --- | --- | --- | --- | --- | --- |
| O=C(O)CC(O)(CC(=O)O)C(=O)O [Citric acid, citric acid] | 155 | – | – | – | – |
| O=C1O[C@H]([C@@H](O)CO)C(O)=C1O [L-ascorbic acid] | 73 | 392.8 ± 45.3 | 367.0 ± 45.3 | – | Glucose levels in the medium ([3]; 1 mM (each 1 mM for the combination)): 14.6 mg/dL; Glucose levels in the medium ([3]; 3 mM (each 3 mM for the combination)): 10.6 mg/dL; Effect on gluconeogenesis (in words) ([3]; 1 or 3 mM): Gluconeogenesis was reduced; Effect on lactic acid increase induced by metformin hydrochloride (in words) (3T3-L1 adipocytes; 40 mM with metformin hydrochloride 10 mM, 24 hr): prevented lactic acid increase induced by metformin hydrochloride |
| O=C(O)CC(O)C(=O)O (stereo not shown) [Malic acid, malic acid] | 143 | – | – | – | – |
| CN(C)C(=N)N=C(N)N.O=C1OC(C(O)CO)C(O)=C1O [Metformin L-ascorbate] | – | 270.3 ± 78.2 | – | Significant effects for reducing blood glucose levels | Blood lactic acid levels (5/6 nephrectomy rats; blood at day 5, metformin hydrochloride 250 mg/kg/dose, metformin L-ascorbate 461 mg/kg/dose, metformin hydrochloride 250 + L-ascorbic acid 266 mg/kg/dose (same moles of metformin)): 40.2 ± 6.2 (†)(*) mg/dL; Blood lactic acid levels compared with metformin hydrochloride group (in words) (5/6 nephrectomy rats; day 5): significantly lower than metformin hydrochloride group; Blood lactic acid levels compared with vehicle group (in words) (5/6 nephrectomy rats; day 5): significantly higher than vehicle group |
| CN(C)C(=N)NC(=N)N.Cl [Metformin hydrochloride, 1,1-dimethylbiguanide hydrochloride] | – | 247.6 ± 30.2 | 286.5 ± 63.1 | Significant effects for reducing blood glucose levels | Effect for reducing blood glucose levels (in words) (KKAy mice [2]): Significant effects for reducing blood glucose levels |
| O=C(O)CCC(=O)O [Succinic acid, succinic acid] | 145 | – | – | – | – |

— US6399658B1, “Composition containing ascorbic acid” (Sumitomo Pharmaceuticals Co., Ltd., priority 1996, dated 2002)
